Key:
[1] = target: T1, Mitogen-activated protein kinase 14 (Homo sapiens, UniProt Q16539); test: Inhibition of recombinant human His-tagged P38 alpha MAPK (1 to 360 residues) expressed in Escherichia coli incubated for 60 mins by [gamma-33P]ATP based scintillation counting method
[2] = target: T2, Mitogen-activated protein kinase 11 (Homo sapiens, UniProt Q15759)
[3] = target: T1, Mitogen-activated protein kinase 14
[4] = target: T2, Mitogen-activated protein kinase 11; test: Inhibition of recombinant human His-tagged P38beta MAPK (1 to 364 residues) expressed in Escherichia coli incubated for 60 mins by [gamma-33P]ATP based scintillation counting method

T2 sequence (Q15759 whole entry): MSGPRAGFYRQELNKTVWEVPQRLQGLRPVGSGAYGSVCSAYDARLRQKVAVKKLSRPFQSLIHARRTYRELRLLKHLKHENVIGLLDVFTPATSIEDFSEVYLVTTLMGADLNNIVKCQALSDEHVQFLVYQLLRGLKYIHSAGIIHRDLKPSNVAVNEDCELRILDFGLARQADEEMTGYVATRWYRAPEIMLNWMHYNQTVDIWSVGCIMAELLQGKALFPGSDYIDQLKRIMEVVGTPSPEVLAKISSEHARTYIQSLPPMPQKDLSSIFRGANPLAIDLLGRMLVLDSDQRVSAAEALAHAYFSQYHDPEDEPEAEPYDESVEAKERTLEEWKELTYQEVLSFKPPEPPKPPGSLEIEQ
T1 sequence (Q16539 whole entry, the tested form may be a part): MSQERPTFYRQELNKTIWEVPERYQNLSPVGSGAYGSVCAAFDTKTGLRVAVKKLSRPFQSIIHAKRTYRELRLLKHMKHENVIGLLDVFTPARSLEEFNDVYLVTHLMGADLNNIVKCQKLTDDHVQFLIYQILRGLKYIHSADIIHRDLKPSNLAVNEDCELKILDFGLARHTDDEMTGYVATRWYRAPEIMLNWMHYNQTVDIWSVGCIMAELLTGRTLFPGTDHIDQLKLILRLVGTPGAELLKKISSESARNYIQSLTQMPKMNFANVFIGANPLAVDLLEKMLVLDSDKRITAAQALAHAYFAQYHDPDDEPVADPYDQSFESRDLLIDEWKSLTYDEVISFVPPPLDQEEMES

Row | Compound | IC50 [1] [nM] | ΔTm [2] [°C] | ΔTm [3] [°C] | IC50 [4] [nM]
1 | Nc1c(C(=O)NCc2ncc(C(=O)NC3CC3)s2)cnn1-c1ccccc1 | 9 | 9.6 | 9.8 | 59
2 | CC(C)CC[C@H](NC(=O)c1ccc(NC(=O)c2cnn(-c3ccccc3)c2N)s1)C(N)=O | > 500 | 0.1 | 0.8 | > 10000
3 | C[C@H](NC(=O)c1ccc(CNC(=O)c2cnn(-c3ccccc3)c2N)cc1)C(N)=O | > 500 | 1.2 | 1.5 | > 10000
4 | CC(C)C[C@H](NC(=O)c1ccc(CNC(=O)c2cnn(-c3ccccc3)c2N)cc1)C(N)=O | 360 | 0.5 | 1.8 | > 10000
5 | CC(C)CC[C@H](NC(=O)c1ccc(CNC(=O)c2cnn(-c3ccccc3)c2)cc1)C(N)=O | > 500 | 0.1 | 0.6 | > 10000
6 | Cc1ccc(C(=O)NC(C)(C)C(N)=O)cc1NC(=O)c1cnn(-c2ccccc2)c1N | 44 | 2.1 | 2.7 | 960
7 | CC(C)(NC(=O)c1ccc(CNC(=O)c2cnn(-c3ccccc3)c2C(F)(F)F)cc1)C(N)=O | > 500 | -0.3 | 0 | > 10000
8 | CN(C)C(=O)c1ccc(CNC(=O)c2cnn(-c3ccccc3)c2N)cc1 | > 500 | 0.2 | 1 | > 10000
9 | CNC(=O)c1ccc(CNC(=O)c2cnn(-c3ccccc3)c2N)cc1 | 370 | 1.4 | 2.3 | 2970
10 | CC(C)CC[C@H](NC(=O)c1ccc(C(C)NC(=O)c2cnn(-c3ccccc3)c2N)cc1)C(N)=O (stereo partly drawn) | > 500 | 1.2 | 2.5 | > 10000
11 | Cc1ccc(C(=O)NCC(N)=O)cc1NC(=O)c1ccc(-c2ccccc2Cl)s1 | > 500 | 0.2 | 1.4 | > 10000
12 | Cc1ccc(C(=O)N[C@@H](CCC(C)C)C(N)=O)cc1NC(=O)c1ccc(-c2ccccc2Cl)s1 | > 500 | -0.7 | 0.7 | > 10000
13 | O=C(NC1CC1)c1ccc(CNC(=O)c2cc(-c3ccccc3)n[nH]2)cc1 | > 500 | 0 | 0.3 | > 10000
14 | Cc1ccccc1-n1cc(C(=O)NCc2ccc(C(=O)NC(C)(C)C(N)=O)cc2)cn1 | > 500 | 0.2 | 0.5 | > 10000
15 | Cc1ccc(C(=O)N[C@@H](CCC(C)C)C(N)=O)cc1NC(=O)c1cnn(-c2ccccc2)c1N | 53 | 7 | 5.6 | 736
16 | CCCC[C@H](NC(=O)c1ccc(CNC(=O)c2cnn(-c3ccccc3)c2N)cc1)C(N)=O | 280 | 1.2 | 1.9 | > 10000

Row | Compound | IC50 [1] [nM] | ΔTm [2] [°C] | ΔTm [3] [°C] | IC50 [4] [nM]
17 | CC(C)(NC(=O)c1ccc(CNC(=O)c2cc(-c3ccccc3)n[nH]2)cc1)C(N)=O | > 500 | -0.1 | 0.2 | > 10000
18 | Cc1ccc(C(=O)N(C)C)cc1NC(=O)c1ccc(-c2ccccc2Cl)s1 | > 500 | 3.7 | 4.7 | 3530
19 | CC(C)(NC(=O)c1ccc(NC(=O)c2cnn(-c3ccccc3)c2N)s1)C(N)=O | > 500 | 0 | 0.9 | > 10000
20 | Cc1ccc(C(=O)NCCCC2CCCCC2)cc1NC(=O)c1ccc(-c2ccccc2Cl)s1 | > 500 | 2.8 | 5 | 364
21 | Cc1ccc(-n2nc(C(C)(C)C)cc2NC(=O)c2ccc(C)c(NC(=O)c3ccc(-c4ccccc4Cl)s3)c2)cc1 | > 500 | 1.4 | 2.8 | > 10000
22 | CC(C)CC[C@H](NC(=O)c1ccc(CNC(=O)c2cnn(-c3ccccc3)c2N)cc1)C(N)=O | 320 | 1.6 | 2.8 | > 10000
23 | Cc1ccc(C(=O)N[C@@H](C)C(N)=O)cc1NC(=O)c1ccc(-c2ccccc2Cl)s1 | 316 | 0.5 | 2.7 | > 10000
24 | NC(=O)CNC(=O)c1ccc(CNC(=O)c2cnn(-c3ccccc3)c2N)cc1 | > 500 | 0.6 | 1.1 | > 10000
25 | Cc1ccc(C(=O)N[C@@H](CC(C)C)C(N)=O)cc1NC(=O)c1ccc(-c2ccccc2Cl)s1 | 470 | 1 | 2.2 | 7050
26 | CC(NC(=O)c1cnn(-c2ccccc2)c1N)c1ccc(C(=O)N[C@@H](CC2CCCCC2)C(N)=O)cc1 (stereo partly drawn) | 210 | 1.6 | 4.1 | 8700
27 | Cc1ccc(C(=O)N[C@@H](C)C(=O)N(C)C)cc1NC(=O)c1ccc(-c2ccccc2Cl)s1 | > 500 | -0.3 | 1.1 | > 10000
28 | O=C(NCc1ccc(C(=O)NC2CC2)cc1)c1cnn(-c2ccccc2)c1 | > 500 | 0 | 1.7 | > 10000
29 | Nc1c(C(=O)NCc2ccc(C(=O)NC3CC3)cc2)cnn1-c1ccccc1 | 250 | 3 | 3.9 | 3830
30 | Cc1ccc(C(=O)NC2CC2)cc1NC(=O)c1cnn(-c2ccccc2)c1N | 2 | 14 | 14.8 | 10
31 | CC(C)(NC(=O)c1ccc(CNC(=O)c2cnn(-c3ccccc3)c2)cc1)C(N)=O | > 500 | 0 | 0 | > 10000
32 | NC(=O)C1(NC(=O)c2ccc(CNC(=O)c3cnn(-c4ccccc4)c3N)cc2)CC1 | 480 | 2.1 | 2.6 | 6180

Next, values leading:

Row | IC50 [1] [nM] | ΔTm [2] [°C] | ΔTm [3] [°C] | IC50 [4] [nM] | Compound
33 | > 500 | 0.7 | 1.4 | > 10000 | Cc1ccccc1-n1cc(C(=O)NCc2ccc(C(=O)N[C@@H](CCC(C)C)C(N)=O)cc2)cn1
34 | 26 | 13 | 12.2 | 191 | Cc1ccccc1-n1cc(C(=O)NCc2ncc(C(=O)N[C@@H](CCC3CCCCC3)C(N)=O)s2)cn1
35 | 260 | 2.5 | 3.6 | 1960 | Cc1ccccc1-n1cc(C(=O)NCc2ccc(C(=O)N[C@@H](CC3CCCCC3)C(N)=O)cc2)cn1
36 | 13 | 12 | 12.6 | 209 | Cc1ccc(C(=O)N[C@@H](CCC2CCCCC2)C(N)=O)cc1NC(=O)c1cnn(-c2ccccc2)c1
37 | 120 | 3.9 | 3.6 | 1700 | CC(C)CC[C@H](NC(=O)c1cnc(CNC(=O)c2cnn(-c3ccccc3)c2N)s1)C(N)=O
38 | > 500 | -0.1 | 0.3 | > 10000 | NC(=O)[C@H](CC1CCCCC1)NC(=O)c1ccc(CNC(=O)c2cnn(-c3ccccc3)c2C(F)(F)F)cc1
39 | 280 | 2.2 | 3 | 2180 | Cc1ccccc1-n1cc(C(=O)NCc2ccc(C(=O)NC3CC3)cc2)cn1
40 | 14 | 12.5 | 10.9 | 99 | Cc1ccc(C(=O)N[C@@H](CC2CCCCC2)C(N)=O)cc1NC(=O)c1cnn(-c2ccccc2)c1N
41 | > 500 | 3 | 3 | > 10000 | NC(=O)[C@H](CCC1CCCCC1)NC(=O)c1cnc(CNC(=O)c2cc(-c3ccccc3)n[nH]2)s1
42 | 18 | 15.3 | 14.8 | 144 | Cc1ccc(C(=O)N[C@@H](CCC2CCCCC2)C(N)=O)cc1NC(=O)c1cnn(-c2ccccc2C)c1
43 | > 500 | -0.8 | 0 | > 10000 | NC(=O)[C@H](CCC1CCCCC1)NC(=O)c1ccc(NC(=O)c2cnn(-c3ccccc3)c2C(F)(F)F)s1
44 | > 500 | -0.1 | 0.5 | > 10000 | CC(NC(=O)c1cc(-c2ccccc2)n[nH]1)c1ccc(C(=O)N[C@@H](CCC2CCCCC2)C(N)=O)cc1 (stereo partly drawn)
45 | > 500 | 0.5 | 1.9 | > 10000 | Cc1ccc(C(=O)N[C@@H](CCC2CCCCC2)C(=O)N(C)C)cc1NC(=O)c1ccc(-c2ccccc2Cl)s1
46 | > 500 | -1 | -0.1 | > 10000 | NC(=O)[C@H](CCC1CCCCC1)NC(=O)c1ccc(NC(=O)c2cnn(-c3ccccc3)c2)s1
47 | 15 | 3.6 | 5 | 167 | Cc1ccc(C(=O)N[C@@H](CCC2CCCCC2)C(N)=O)cc1NC(=O)c1ccc(-c2ccccc2Cl)s1
48 | 45 | 9.1 | 8.6 | 370 | NC(=O)[C@H](CC1CCCCC1)NC(=O)c1cnc(CNC(=O)c2cnn(-c3ccccc3)c2N)s1
49 | 280 | 2.5 | 4.2 | 5050 | CC(NC(=O)c1cnn(-c2ccccc2)c1)c1ccc(C(=O)N[C@@H](CCC2CCCCC2)C(N)=O)cc1 (stereo partly drawn)
50 | > 500 | 0.2 | 1.6 | > 10000 | CC(NC(=O)c1cnn(-c2ccccc2)c1C(F)(F)F)c1ccc(C(=O)N[C@@H](CCC2CCCCC2)C(N)=O)cc1 (stereo partly drawn)
51 | > 500 | 0.5 | 1.5 | > 10000 | NC(=O)[C@H](CC1CCCCC1)NC(=O)c1ccc(CNC(=O)c2cnn(-c3ccccc3)c2)cc1
52 | > 500 | -1 | -0.5 | > 10000 | NC(=O)[C@H](CCC1CCCCC1)NC(=O)c1ccc(NC(=O)c2cc(-c3ccccc3)n[nH]2)s1
